Target: T1, human leukocyte elastase (Homo sapiens, UniProt P08246)
T1 sequence (P08246 30-267): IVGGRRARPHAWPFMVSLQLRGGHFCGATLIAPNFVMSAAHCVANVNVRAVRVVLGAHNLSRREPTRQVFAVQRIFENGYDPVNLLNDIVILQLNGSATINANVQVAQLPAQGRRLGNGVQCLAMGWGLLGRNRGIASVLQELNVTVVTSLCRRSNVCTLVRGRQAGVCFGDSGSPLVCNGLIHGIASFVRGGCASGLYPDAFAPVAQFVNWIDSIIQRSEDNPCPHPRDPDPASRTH
Experiment: human leukocyte elastase inhibition assay (progress curves, MeOSuc-Ala-Ala-Pro-Val-pNA substrate)
Format: biochemical
Conditions: in vitro, pH 7.8 at 25° C., absorbance 410 nm, read-out: Ki, human leukocyte elastase inhibitory activity
Method: The test compound (inhibitor) is dissolved in DMSO in a vial to produce an inhibitor stock solution which has a concentration in the range of 200-1000μM. The inhibitor stock solution is diluted (1:4, 1:16 and 1:64) into assay vials (vials 1, 2 and 3 respectively) containing 2.4 mL of buffer solution (50 mM N-[2-hydroxyethyl] piperazine-N'-[2-ethanesulfonic acid]/NaOH, 500 mM NaCl, pH 7.8 at 25° C.) and DMSO is added so that the total volume in each vial is 3.2 mL. 70 μL, 50 μL, 35 μL and 25 μL of inhibitor from assay vial 1 is placed into the first four wells of a 96-well microtiter plate and each well is made up to 90 μL total volume with the addition of a 25% DMSO/buffer solution. […]
The 96-well microtiter plate is placed into a Microplate Reader #89815A spectrophotometer and 110 μL of the enzyme solution (prepared as follows: a mixture of 20 mL of buffer solution and 20 mg of bovine serum albumen is gently vortexed in a scintillation vial and 5 μL HLE stock solution (1 mg/mL dissolved in deionized water) is added) is added simultaneously to each of the 16 wells. Each of the solutions in the wells is throughly mixed and then the time-dependent absorbance data is collected at an absorbance of 410 nm until the assay is complete. […]
A plot of the absorbance versus time data thus obtained affords progress curves the final slope of which is equal to the final steady-state velocities (VF). […]

Ki | Compound
> 100 nM | CC(C)CCC1C(=O)N(c2c(F)c(F)nc(F)c2F)S(=O)(=O)N1C (centres unmarked) [2(h), 2-(2,3,5,6-tetrafluoro-4-pyridyl)-5-methyl-4-(3-methylbutyl)-1,2,5-thiadiazolidin-3-one 1,1-dioxide]
10 nM | CCCC1C(=O)N(c2c(F)c(F)nc(F)c2F)S(=O)(=O)N1C (centres unmarked) [Example 1(g), 2-(2,3,5,6-tetrafluoro-4-pyridyl)-5-methyl-4-propyl-1,2,5-thiadiazolidin-3-one 1,1-dioxide]

— patent publication US5750546A, “2-(2, 3, 5, 6-tetrafluoro-4-pyridyl)-1, 2, 5-thiadiazolidin-3-one 1, 1-dioxides and compositions and method of use thereof” (Sanofi Winthrop, Inc., priority 1994, dated 1998)
